In patent US20150133493A1, “COUMARIN-BASED COMPOUNDS FOR THE TREATMENT OF ALZHEIMER'S DISEASE AND CANCER” (Sloan-Kettering Institute for Cancer Research, priority 2008, published 2015):

Key:
[1] = molecular target: T1, γ-secretase (Homo sapiens, UniProt P49768); conditions: reference (22); cited from earlier work
T1 construct: endogenous in cells

[2] = molecular target: T2, γ-secretase active site (Homo sapiens, UniProt P49768); test: Photolabeling of the γ-secretase active site (PS1-NTF) in HeLa membrane with probes L646, GY4, JC8, L505; format: binding; conditions: L458 and Compound E at 2 μM, CS-1 up to 100 μM
T2 construct: endogenous in cells; host or cells: HeLa membrane
Description: FIG. 4. Kinetic analysis of allosteric GSIs and evaluation of their effect on the γ-secretase active site architecture. (a) Kinetic analysis of CS1 was performed using our modified version of a previously reported in vitro γ-secretase activity assay. The inhibition kinetics were analyzed by using a non-linear curve fit with the Michaelis-Menten equation. Upper right inset: we replotted slopes against the inhibitor concentrations after performing double reciprocal conversion. (b) Schematic representation of the allosteric binding of the di-coumarin compounds to γ-secretase. This binding ultimately causes an alteration at the active site of γ-secretase. Black rectangle represents the coumarin-dimer compound. (c) The binding of L458 to the active site of γ-secretase and its interaction at various subpockets within the enzyme. (d) Chemical structure of the four photoaffinity probes utilized in the characterization of CS-1 effect on active site architecture. Hydroxyethylamine and benzophenone moieties are marked by blue and red, respectively. (e) Evaluation of CS-1 effect on the photolabeling of four probes. […] (f) Evaluation of CS-2 effect on the active site photolabeling by L505 and GY4. (g) Effect of Compound E on active site photolabling. […] Blotting was performed for PS1-NTF. The photolabeling blots are representative and were performed in triplicate.
We hypothesized that the allosteric binding of the di-coumarin compounds alters the conformation of the active site of γ-secretase and thereby preferentially affects the Aβ42 site cleavage (FIG. 4b). This raised the technical issue of how to probe the contours of the enzymatic active site. Although the structure of γ-secretase has been determined by cryoelectron microscopy (23), the resolution attained is not sufficient to investigate subtle changes within the active site. Consequently, we developed a series of active-site directed inhibitors that incorporate a photoreactive benzophenone entity into varied positions. Using these photoreactive probes, we assessed the effect of the di-coumarin inhibitor binding on the active site of γ-secretase. Since the efficiency of photoinsertion depends on the orientation of the probe and the proximity of residues within the active site, conformational change of the active site can alter the orientation of the probe and contact residues and lead to altered cross-linking efficiencies. Therefore, multiple photoactivatable, active-site directed GSIs will provide a practical approach to evaluate the changes within the active site following allosteric di-coumarin binding.
L458 contains a hydroxyethylamine transition-state isostere that mimics the tetrahedral intermediate of aspartyl proteases and this moiety hydrogen bonds with the catalytic aspartate residues of γ-secretase (20). According to the nomenclature of Schechter and Berger (24), L458 contains the P2, P1, P1′, P2′ and P3′ residues that putatively bind to the S2, S1, S1′, S2′ and S3′ subsites, respectively, within the active site of γ-secretase (FIG. 4c). We have developed a series of biotinylated, photoactivatable inhibitors based on the core structure of L458 that allow us to probe the sub-pockets of the γ-secretase active site (3, 25-26). These inhibitors all have an individual benzophenone group incorporated into L458 at either the P2, P1, P1′, or P3′ position and are referred to as L646, GY4, JC8 and L505 (FIG. 4d). Each of these inhibitors interacts and labels the S2, S1, S1′, and S3′ subsites, respectively, within the γ-secretase complex (FIG. 4c-d).
HeLa membrane was incubated with CHAPSO detergent and photoaffinity probe in the presence or absence of excess L458 or CS-1. Labeled presenilin was isolated using streptavidin beads, separated by SDS-PAGE and subsequently western blotted using anti-PS1-NTF antibodies. Again, presenilin is believed to contain the active site of γ-secretase, therefore we examined PS1 photolabeling. […]

[3] = molecular target: T1, γ-secretase; test: Inhibition kinetic analysis in the in vitro γ-secretase activity assay; format: biochemical; conditions: APP-transmembrane domain substrate
Description: FIG. 4. Kinetic analysis of allosteric GSIs and evaluation of their effect on the γ-secretase active site architecture. (a) Kinetic analysis of CS1 was performed using our modified version of a previously reported in vitro γ-secretase activity assay. The inhibition kinetics were analyzed by using a non-linear curve fit with the Michaelis-Menten equation. Upper right inset: we replotted slopes against the inhibitor concentrations after performing double reciprocal conversion. (b) Schematic representation of the allosteric binding of the di-coumarin compounds to γ-secretase. This binding ultimately causes an alteration at the active site of γ-secretase. Black rectangle represents the coumarin-dimer compound. (c) The binding of L458 to the active site of γ-secretase and its interaction at various subpockets within the enzyme. […]
Cell membranes and solubilized γ-secretase were prepared as described previously (36). […] Cleaved product was detected using ruthenylated antibodies that recognize specific APP cleavage sites (Aβ31-38*, G2-10*, or G2-11* antibody for Aβ38, Aβ40, or Aβ42 respectively). The Km and Vmax in the presence and absence of γ-secretase inhibitors were analyzed by non-linear curve fit using the software SigmaPlot 8.0 with the Michaelis-Menten equation (v=Vm [S]/(Km+[S]; v: initial rate; Vm: maximum velocity; Km: the Michaelis-Menten constant, S: substrate).

[4] = molecular target: T1, γ-secretase; test: In vitro γ-secretase activity assay, Aβ40 production (ECL); format: biochemical
Description: (§1) FIG. 2. In vitro characterization of coumarin-dimer allosteric GSIs against various γ-secretase cleavage products. The potency of 7 unique coumarin-based γ-secretase inhibitors were evaluated for efficacy against γ-secretase-mediated production of Aβ40, Aβ42, Aβ38, and Notch. Additionally, the pan-GSI Compound E was also examined in these assays. The IC50 values were calculated from the dose response curves using a non-linear regression analysis in Prism software. IC50 values are presented with standard deviation (n=3 for each data point). The three β-amyloid-detection in vitro assays were modified from our previously reported assay (21) using a biotinylated substrate that eliminated the requirement of anti-β-amyloid biotinylated antibody. Ruthenylated antibodies that detected the -40, -42, or -38 cleavage site were incorporated to detect proteolysis indicative of γ-secretase activity. In vitro Notch assay utilized a recombinant transmembrane portion of the Notch peptide and anti-Notch1 SM320 antibody in conjunction with ruthenylated anti-rabbit secondary antibodies. Electrochemiluminescence was quantified on an Analyzer (BioVeris). The selectivity ratio for Aβ42 inhibition over Aβ40 and Notch are indicated in the two far right columns.
The assay protocol employed was a modified version of that described in Li et al., 2000, Proc. Nat'l Acad. Sci. USA 97:6183-643, incorporated herein by reference. Briefly, recombinant peptide substrate was incubated with γ-secretase (40 μg/ml) in the presence or absence of test compound. The reaction mixture contained 0.25% CHAPSO, 0.1 μg/μl BSA, protease inhibitor, 50 mM PIPES, pH 7.0, 5 mM MgCl2, 5 mM CaCl2 and 150 mM KCl. The reaction was incubated for 2.5 hr at 37° C. and stopped by adding RIPA buffer (150 mM NaCl, 1.0% NP-40, 0.5% sodium deoxycholate, 0.1% SDS, 50 mM Tris HCl, pH 8.0). The products were detected with various antibody combinations using electrochemiluminescence (ECL) technology as previously described in Li et al., 2000, Proc. Nat'l Acad. Sci. USA 97:6183-643; Lai et al., 2003, J. Biol. Chem. 278: 22475-22481; and Yin et al., 2007, J. Biol. Chem. 282:23639-23644. The amount of product was determined using synthetic peptide or recombinant standards.
(§2) Cell membranes and solubilized γ-secretase were prepared as described previously (36). The in vitro and cell γ-secretase assays detecting either Aβ38, Aβ40, or Aβ42 cleavage were performed similar as previously described (21, 36). Cleaved product was detected using ruthenylated antibodies that recognize specific APP cleavage sites (Aβ31-38*, G2-10*, or G2-11* antibody for Aβ38, Aβ40, or Aβ42 respectively). The Km and Vmax in the presence and absence of γ-secretase inhibitors were analyzed by non-linear curve fit using the software SigmaPlot 8.0 with the Michaelis-Menten equation (v=Vm [S]/(Km+[S]; v: initial rate; Vm: maximum velocity; Km: the Michaelis-Menten constant, S: substrate).

[5] = test system: cells stably transfected with APP; test: Cell-based assay for production of Aβ38, Aβ40 and Aβ42 peptides (Example 29, FIG. 1); conditions: increasing concentrations of compound
Description: The following cell-based assay can be used for assessing inhibitory activity of test compounds on γ-secretase activity on APP expressed in stably transfected cells. Cells such as HEK239 or N2A cells that stably express APP are incubated 24-48 hr. in medium to which is added γ-secretase with or without test compound. The conditioned medium is collected. Secreted Aβ peptides are detected by electrochemiluminescence (ECL) technology as previously described, for example, in Li et al., 2000, Proc. Nat'l Acad. Sci. USA 97:6183-643; Lai et al., 2003, J. Biol. Chem. 278: 22475-22481; and Yin et al., 2007, J. Biol. Chem. 282:23639-23644. Concentration of Aβ peptides can be calculated from standard curves that are generated using synthetic peptides using the ECL assay.
Results of a cell-based assay are provided in FIG. 1 in which cells stably transfected with APP were incubated in medium containing γ-secretase activity and the indicated amounts of compound 37.

[6] = molecular target: T1, γ-secretase; test: In vitro γ-secretase activity assay, Aβ42 production (ECL); format: biochemical; conditions: in vitro inhibition of γ-secretase activity that generates Aβ42; 2.5 hr at 37° C., ECL detection
Description: as §1, with “The potency of 7 unique coumarin-based γ-secretase inhibitors were evaluated for efficacy against γ-secretase-mediated production of Aβ40, Aβ42, Aβ38, and Notch. Additionally, the pan-GSI Compound E was also examined in these assays.” left out, “IC50 values are presented with standard deviation (n=3 for each data point).” left out, “(BioVeris).” for “(BioVeris). The selectivity ratio for Aβ42 inhibition over Aβ40 and Notch are indicated in the two far right columns.”
Briefly, recombinant peptide substrate was incubated with γ-secretase (40 μg/ml) in the presence or absence of test compound. […] The reaction was incubated for 2.5 hr at 37° C. and stopped by adding RIPA buffer (150 mM NaCl, 1.0% NP-40, 0.5% sodium deoxycholate, 0.1% SDS, 50 mM Tris HCl, pH 8.0). […] The amount of product was determined using synthetic peptide or recombinant standards.
as §2

effect on JC-8 photolabeling of PS1-NTF (S1′ subsite) [2]	effect on L646 photolabeling of PS1-NTF (S2 subsite) [2]	effect on GY-4 photolabeling of PS1-NTF (S1 subsite) ([2]; CS-2 at 100 μM)	effect on L505 photolabeling of PS1-NTF (S3′ subsite) ([2]; CS-2 at 100 μM)	mode of inhibition against APP-TM substrate [3]	Structure (SMILES)	mode of inhibition when the C100 substrate is used [1]	IC50 ([4]; in vitro inhibition of γ-secretase activity that generates Aβ40, 2.5 hr at 37° C., ECL detection) [µM]	Aβ40/Aβ42 ratio ([4]; ratio of IC50 for Aβ40 to IC50 for Aβ42)	amount of Aβ38 secreted from the cells [5]	amount of Aβ40 secreted from the cells [5]	amount of Aβ42 secreted from the cells [5]	IC50 [6] [µM]
completely blocked	completely blocked	completely blocked	completely blocked	competitive inhibitor	CC(C)C[C@H](NC(=O)[C@H](Cc1ccccc1)C[C@@H](O)[C@H](Cc1ccccc1)NC(=O)OC(C)(C)C)C(=O)N[C@@H](Cc1ccccc1)C(N)=O [L-685,458]	non-competitive inhibitor						
					O=c1oc2ccccc2c(O)c1C(c1cc(F)c(F)c(F)c1)c1c(O)c2ccccc2oc1=O [Compound 37]		0.6	3.0	remain relatively constant	remain relatively constant	decrease	0.2
